In US9198426B2, “Use of 5 pyridin-4-yl-1,3-thiazoles for controlling phytopathogenic fungi” (Bayer Intellectual Property GmbH, priority 2008, dated 2015):
Marks after values point to notes of the source that are not given here.

How the values were obtained:
[1] = physchem; format: physicochemical
[2] = tested on: Fusarium proliferatum; experiment: Production of fumonisin FB1 by Fusarium proliferatum (microtitre plates); format: cell-based; conditions: 120 h, 5 days, 20° C., HPLC-MS/MS
[3] = tested on: Fusarium graminearum; experiment: microbe, parasite or virus in culture; format: cell-based; conditions: 168 h, read-out: activity in the inhibition of DON/AcDON production

Row | SMILES | log p ([1]; pH 2.7) | log p ([1]; pH 7.8) | also measured
1 | O=C(c1ccc(Cl)s1)C(Br)c1ccncc1 (centres unmarked) [2-Bromo-1-(5-chloro-2-thienyl)-2-(pyridin-4-yl)ethanone] | – | – | chromatographic logP ([1]; pH 2.7): 2.18
2 | CCc1nc(-c2ccc(F)cc2)c(-c2ccnc(N)c2)s1 [Ex. 35, 4-[2-Ethyl-4-(4-fluorophenyl)-1,3-thiazol-5-yl]pyridine-2-amine] | – | – | chromatographic logP ([1]; pH 2.7): 1.29
3 | CCc1nc(-c2ccc(F)cc2)c(-c2ccncc2)s1 [Ex. 41, 4-[2-Ethyl-4-(4-fluorophenyl)-1,3-thiazol-5-yl]pyridine] | – | – | inhibition at 50 µM [2]: > 70%; inhibition at 50 µM [3]: > 70%; chromatographic logP ([1]; pH 2.3): 2.01; chromatographic logP ([1]; pH 7.8): 2.89
4 | CCc1nc(-c2ccc(F)cc2)c(-c2ccnc(Cl)c2)s1 [Ex. 58, 2-Chloro-4-[2-ethyl-4-(4-fluorophenyl)-1,3-thiazol-5-yl]pyridine] | – | – | chromatographic logP ([1]; pH 2.7): 4.07; chromatographic logP ([1]; pH 7.8): 4.1
5 | CCc1nc(-c2ccc(F)cc2)c(-c2ccnc(NCc3ccccc3)c2)s1 [Ex. 59, N-Benzyl-4-[2-ethyl-4-(4-fluorophenyl)-1,3-thiazol-5-yl]pyridine-2-amine] | – | – | chromatographic logP ([1]; pH 2.7): 2.32
6 | CCc1nc(-c2ccc(F)cc2)c(-c2ccnc(NC3CC3)c2)s1 [Ex. 72, N-Cyclopropyl-4-[2-ethyl-4-(4-fluorophenyl)-1,3-thiazol-5-yl]pyridine-2-amine] | – | – | chromatographic logP ([1]; pH 2.7): 1.74; chromatographic logP ([1]; pH 7.8): 3.61
7 | CCc1nc(-c2ccc(F)cc2)c(-c2ccnc(C(=O)NC3CC3)c2)s1 [Ex. 75, N-Cyclopropyl-4-[2-ethyl-4-(4-fluorophenyl)-1,3-thiazol-5-yl]pryridine-2-carboxamide] | 3.46^[b] | 3.5^[c]; | –
8 | CCc1nc(-c2ccc(F)cc2)c(-c2ccnc(N(C(C)=O)C3CC3)c2)s1 [Ex. 80, N-Cyclopropyl-N-{4-[2-ethyl-4-(4-fluorophenyl)-1,3-thiazol-5-yl]pyridin-2-yl}acetamide] | – | – | chromatographic logP ([1]; pH 2.7): 2.81; chromatographic logP ([1]; pH 7.8): 2.88
9 | CCCC(=O)Nc1cc(-c2sc(CC)nc2-c2ccc(F)cc2)ccn1 [Ex. 83, N-{4-[2-Ethyl-4-(4-fluorophenyl)-1,3-thiazol-5-yl]pyridin-2-}butanamide] | 3.45^[b] | 3.58^[c]; | –
10 | CCc1nc(-c2ccc(F)cc2)c(-c2ccnc(C)c2)s1 [Ex. 96, 4-[2-Ethyl-4-(4-fluorophenyl)-1,3-thiazol-5-yl]-2-methylpyridine] | – | – | chromatographic logP ([1]; pH 2.7): 1.68
11 | Cc1cc(-c2sc(C(C)C)nc2-c2ccc(F)cc2)ccn1 [Ex. 100, 4-[4-(4-Fluorophenyl)-2-isopropyl-1,3-thiazol-5-yl]-2-methylpyridine] | – | – | chromatographic logP ([1]; pH 2.7): 2.1; chromatographic logP ([1]; pH 7.8): 4.06
12 | CCc1nc(-c2ccc(Cl)s2)c(-c2ccncc2)s1 [compound 42] | 3.06^[b] | 3.88^[c]; | –
13 | CC(C)c1nc(-c2ccc(F)cc2)c(-c2ccncc2)s1 [compound 43] | 2.56^[b] | 3.71^[c]; | –
14 | Cc1nc(-c2ccc(F)cc2)c(-c2ccncc2)s1 [compound 44] | 1.48^[b] | – | –
15 | Fc1ccc(-c2nc(Cc3ccccc3)sc2-c2ccncc2)cc1 [compound 45] | 2.94^[b] | – | –
16 | CC(C)(C)c1nc(-c2ccc(F)cc2)c(-c2ccncc2)s1 [compound 46] | 3.29^[b] | – | –
17 | CCCCc1nc(-c2ccc(F)cc2)c(-c2ccncc2)s1 [compound 47] | 3.11^[b] | – | –
18 | CCc1nc(-c2ccc(C)c(C)c2)c(-c2ccncc2)s1 [compound 48] | 2.49^[b] | – | –
19 | CCc1nc(-c2cccc(C(F)(F)F)c2)c(-c2ccncc2)s1 [compound 49] | 3^[b] | – | –
20 | CCc1nc(-c2ccc(F)cc2)c(-c2ccnc(NC(=O)c3ccc(C)cc3)c2)s1 [compound 50] | 4.48^[b] | – | –
21 | CCc1nc(-c2ccc(F)cc2)c(-c2ccnc(NC(=O)C(C)(C)C)c2)s1 [compound 51] | 4.18^[b] | – | –
22 | CCc1nc(-c2ccc(F)cc2)c(-c2ccnc(NC(=O)c3ccc(F)cc3)c2)s1 [compound 52] | 4.18^[b] | – | –

Row | SMILES | log p ([1]; pH 2.7) | log p ([1]; pH 7.8) | also measured
23 | CCc1nc(-c2ccc(F)cc2)c(-c2ccnc(NC(=O)c3ccc(OC)cc3)c2)s1 [compound 53] | 4.04^[b] | – | –
24 | CCc1nc(-c2ccc(F)cc2)c(-c2ccnc(NC(=O)C3CCCCC3)c2)s1 [compound 54] | 4.54^[b] | – | –
25 | CCc1nc(-c2ccc(F)cc2)c(-c2ccnc(NC(=O)CCc3ccccc3)c2)s1 [compound 55] | 4.23^[b] | – | –
26 | CCc1nc(-c2ccc(F)cc2)c(-c2ccnc(NC(=O)c3cccs3)c2)s1 [compound 56] | 3.92^[b] | – | –
27 | CCc1nc(-c2ccc(F)cc2)c(-c2ccnc(NC(=O)c3ccsc3)c2)s1 [compound 57] | 3.83^[b] | – | –
28 | CCc1nc(-c2ccc(F)cc2)c(-c2ccnc(Nc3ccccc3)c2)s1 [compound 60] | 3.1^[b] | – | –
29 | CCc1nc(-c2ccc(F)cc2)c(-c2ccnc(NC(C)c3ccccc3)c2)s1 (centres unmarked) [compound 61] | 2.39^[b] | – | –
30 | CCc1nc(-c2ccc(F)cc2)c(-c2ccnc(NCCc3ccccc3)c2)s1 [compound 62] | 2.17^[b] | – | –
31 | CCc1nc(-c2ccc(F)cc2)c(-c2ccnc(NC3CCCC3)c2)s1 [compound 63] | 1.94^[b] | – | –
32 | CCc1nc(-c2ccc(F)cc2)c(-c2ccnc(N3CCCC3)c2)s1 [compound 64] | 2^[b] | – | –
33 | CCc1nc(-c2ccc(F)cc2)c(-c2ccnc(NC(=O)OC(C)(C)C)c2)s1 [compound 65] | 4.63^[b] | – | –
34 | CCCCc1nc(-c2ccc(F)cc2)c(-c2ccnc(NC(=O)c3ccccc3)c2)s1 [compound 66] | 5.07^[b] | – | –
35 | CCc1nc(-c2ccc(F)cc2)c(-c2ccnc(N(C)C(=O)c3ccccc3)c2)s1 [compound 67] | 3.68^[b] | – | –
36 | CCc1nc(-c2ccc(F)cc2)c(-c2ccnc(N(C)C(C)=O)c2)s1 [compound 68] | 2.71^[b] | – | –
37 | CCc1nc(-c2ccccc2)c(-c2ccnc(NC(=O)c3ccccc3)c2)s1 [compound 69] | 3.91^[b] | – | –
38 | CCc1nc(-c2ccc(F)cc2)c(-c2ccnc(NC(C)COC)c2)s1 (centres unmarked) [compound 70] | 1.78^[b] | – | –
39 | CCc1nc(-c2ccc(F)cc2)c(-c2ccnc(NC(C)CO)c2)s1 (centres unmarked) [compound 71] | 1.44^[b] | – | –
40 | CCc1nc(-c2ccc(F)cc2)c(-c2ccnc(C(=O)N(C)CC)c2)s1 [compound 73] | 2.81^[b] | 2.87^[c]; | –
41 | C=CCNc1cc(-c2sc(CC)nc2-c2ccc(F)cc2)ccn1 [compound 74] | 1.67^[b] | 3.8^[c]; | –
42 | CCNc1cc(-c2sc(CC)nc2-c2ccc(F)cc2)ccn1 [compound 76] | 1.54^[b] | 3.64^[c]; | –
43 | CCc1nc(-c2ccc(F)cc2)c(-c2ccnc(NCC(C)O)c2)s1 (centres unmarked) [compound 77] | 1.44^[b] | 2.74^[c]; | –
44 | CCc1nc(-c2ccc(F)cc2)c(-c2ccnc(NCC(C)OC)c2)s1 (centres unmarked) [compound 78] | 1.73^[b] | 3.67^[c]; | –

Row | SMILES | log p ([1]; pH 2.7) | log p ([1]; pH 7.8) | also measured
45 | CCc1nc(-c2ccc(F)cc2)c(-c2ccnc(NCC(F)F)c2)s1 [compound 79] | 2.39^[b] | 3.76^[c]; | –
46 | CCc1nc(-c2ccc(F)cc2)c(-c2ccnc(NC(=O)COC)c2)s1 [compound 81] | 3.17^[b] | 3.21^[c]; | –
47 | CCc1nc(-c2ccc(F)cc2)c(-c2ccnc(NC(=O)C(C)C)c2)s1 [compound 82] | 3.52^[b] | 3.66^[c]; | –
48 | CCc1nc(-c2ccc(F)cc2)c(-c2ccnc(NC(=O)C3CCC3)c2)s1 [compound 84] | 3.68^[b] | 3.82^[c]; | –
49 | CCOC(=O)Nc1cc(-c2sc(CC)nc2-c2ccc(F)cc2)ccn1 [compound 85] | 3.61^[b] | 3.69^[c]; | –
50 | CCc1nc(-c2ccc(F)cc2)c(-c2ccnc(NC(=O)C3CC3)c2)s1 [compound 86] | 3.22^[b] | 3.37^[c]; | –
51 | CCc1nc(-c2ccc(F)cc2)c(-c2ccnc(NC(=O)OC)c2)s1 [compound 87] | 3.14^[b] | 3.22^[c]; | –
52 | Fc1ccc(-c2nc(C(F)F)sc2-c2ccncc2)cc1 [compound 88] | 2.48^[b] | 3.01^[c]; | –
53 | Fc1ccc(-c2nc(C3CC3)sc2-c2ccncc2)cc1 [compound 89] | 2.16^[b] | 3.32^[c]; | –
54 | C=C(C)C(=O)Nc1cc(-c2sc(CC)nc2-c2ccc(F)cc2)ccn1 [compound 90] | 3.6^[b] | 3.71^[c]; | –
55 | CCc1nc(-c2ccc(F)cc2)c(-c2ccnc(NS(C)(=O)=O)c2)s1 [compound 91] | 2.36^[b] | 2.18^[c]; | –
56 | CCc1nc(-c2ccc(F)cc2)c(-c2ccnc(N(S(C)(=O)=O)S(C)(=O)=O)c2)s1 [compound 92] | 3.23^[b] | 3.24^[c]; | –
57 | CCc1nc(-c2ccc(F)cc2)c(-c2ccnc(N(C(=O)OC(C)C)C(=O)OC(C)C)c2)s1 [compound 93] | 4.5^[b] | 4.49^[c]; | –
58 | CCc1nc(-c2ccc(F)cc2)c(-c2ccnc(NC(=O)OC(C)C)c2)s1 [compound 94] | 4.08^[b] | 4.18^[c]; | –
59 | CCc1nc(-c2ccc(F)cc2)c(-c2ccnc(NC(=O)C3(C)CC3)c2)s1 [compound 95] | 3.89^[b] | 4.03^[c]; | –
60 | CCc1nc(-c2ccc(F)cc2)c(-c2ccnc(N(C(C)=O)C(C)=O)c2)s1 [compound 97] | 2.95^[b] | 2.95^[c]; | –
61 | CCc1nc(-c2ccc(F)cc2)c(-c2ccnc(NC(=O)CCl)c2)s1 [compound 98] | 3.29^[b] | 3.32^[c]; | –
62 | CCc1nc(-c2ccc(F)cc2)c(-c2ccnc(NC(=O)CC(C)C)c2)s1 [compound 99] | 3.91^[b] | 4.04^[c]; | –
63 | CCc1nc(-c2ccc(F)cc2)c(-c2ccnc(NC(C)C)c2)s1 [compound 101] | 1.73^[b] | 4.11^[c]; | –
64 | C#CCN(C(C)=O)c1cc(-c2sc(CC)nc2-c2ccc(F)cc2)ccn1 [compound 102] | 3.03^[b] | 3.02^[c]; | –
65 | CCc1nc(-c2cccs2)c(-c2ccncc2)s1 [compound 103] | 1.94^[b] | – | –
